Drawing on patent publication US20050239806A1, “Pyrrolopyrimidine derivatives and analogs and their use in the treatment and prevention of diseases” (Ambit Biosciences Corporation, priority 2004, published 2005), this text covers Kd and IC50 for 48 compounds.

Where only a bound is given, the exact number is not on record here.

As a reminder, the Kd is the concentration at which binding is half-saturated. A high value points to lower affinity. For orientation: IC50 means the concentration at which inhibition is half-maximal.

Test [1] deals with T1, human EGFR (wildtype), EGFR(DKIN) (Homo sapiens, UniProt P00533).
T1 construct: Kd for EGFR(DKIN); made in house
T1 sequence (P00533 712-979 limits assumed): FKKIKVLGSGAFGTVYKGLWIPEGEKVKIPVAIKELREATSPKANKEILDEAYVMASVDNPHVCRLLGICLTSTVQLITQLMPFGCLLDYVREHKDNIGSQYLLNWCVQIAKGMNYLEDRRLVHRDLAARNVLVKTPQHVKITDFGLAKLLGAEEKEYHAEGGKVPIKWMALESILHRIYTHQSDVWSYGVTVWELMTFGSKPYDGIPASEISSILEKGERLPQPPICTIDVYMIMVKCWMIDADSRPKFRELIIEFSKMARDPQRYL
Put plainly: Binding of wildtype-EGFR (T7 phage-displayed kinase competition binding). The text has this: Methods for measuring binding affinities for interactions between small molecules and kinases including FLT3, c-KIT, ABL([…]) [a.k.a. ABL([…])], VEGFR-2 (a.k.a. KDR), and EGFR are described in detail in U.S. application Ser. No. 10/873,835, which is incorporated by reference herein in its entirety. The components of the assays include human kinases expressed as fusions to T7 bacteriophage particles and immobilized ligands that bind to the ATP site of the kinases. […] If the test compound binds the kinase it competes with the immobilized ligand and prevents binding to the solid support. […] The results are read out by quantitating the amount of fusion protein bound to the solid support, which is accomplished by either traditional phage plaque assays or by quantitative PCR (qPCR) using the phage genome as a template. […] The concentration of test molecule that reduces the number of phage bound to the solid support by 50% is equal to the Kd for the interaction between the kinase and the test molecule. Typically, data are collected for twelve concentrations of test compound and, the resultant binding curve is fit to a non-cooperative binding isotherm to calculate Kd. Described in the exemplary assays below is data from binding with varying kinases. […] The term “ND” represents non-determined values. […] The Kd for the interaction between the soluble compound (competitor) molecule and EGFR is equal to the concentration of soluble competitor molecule that causes a 50% reduction in the number of phage recovered in the eluate compared to a control sample lacking soluble competitor.

For test [2], the target named is T2, EGFR (tyrosine 1173 phosphorylation) in A431 cells (Homo sapiens, UniProt P00533).
T2 construct: endogenous in cells; host or cells: A431
T2 sequence (P00533 25-1210): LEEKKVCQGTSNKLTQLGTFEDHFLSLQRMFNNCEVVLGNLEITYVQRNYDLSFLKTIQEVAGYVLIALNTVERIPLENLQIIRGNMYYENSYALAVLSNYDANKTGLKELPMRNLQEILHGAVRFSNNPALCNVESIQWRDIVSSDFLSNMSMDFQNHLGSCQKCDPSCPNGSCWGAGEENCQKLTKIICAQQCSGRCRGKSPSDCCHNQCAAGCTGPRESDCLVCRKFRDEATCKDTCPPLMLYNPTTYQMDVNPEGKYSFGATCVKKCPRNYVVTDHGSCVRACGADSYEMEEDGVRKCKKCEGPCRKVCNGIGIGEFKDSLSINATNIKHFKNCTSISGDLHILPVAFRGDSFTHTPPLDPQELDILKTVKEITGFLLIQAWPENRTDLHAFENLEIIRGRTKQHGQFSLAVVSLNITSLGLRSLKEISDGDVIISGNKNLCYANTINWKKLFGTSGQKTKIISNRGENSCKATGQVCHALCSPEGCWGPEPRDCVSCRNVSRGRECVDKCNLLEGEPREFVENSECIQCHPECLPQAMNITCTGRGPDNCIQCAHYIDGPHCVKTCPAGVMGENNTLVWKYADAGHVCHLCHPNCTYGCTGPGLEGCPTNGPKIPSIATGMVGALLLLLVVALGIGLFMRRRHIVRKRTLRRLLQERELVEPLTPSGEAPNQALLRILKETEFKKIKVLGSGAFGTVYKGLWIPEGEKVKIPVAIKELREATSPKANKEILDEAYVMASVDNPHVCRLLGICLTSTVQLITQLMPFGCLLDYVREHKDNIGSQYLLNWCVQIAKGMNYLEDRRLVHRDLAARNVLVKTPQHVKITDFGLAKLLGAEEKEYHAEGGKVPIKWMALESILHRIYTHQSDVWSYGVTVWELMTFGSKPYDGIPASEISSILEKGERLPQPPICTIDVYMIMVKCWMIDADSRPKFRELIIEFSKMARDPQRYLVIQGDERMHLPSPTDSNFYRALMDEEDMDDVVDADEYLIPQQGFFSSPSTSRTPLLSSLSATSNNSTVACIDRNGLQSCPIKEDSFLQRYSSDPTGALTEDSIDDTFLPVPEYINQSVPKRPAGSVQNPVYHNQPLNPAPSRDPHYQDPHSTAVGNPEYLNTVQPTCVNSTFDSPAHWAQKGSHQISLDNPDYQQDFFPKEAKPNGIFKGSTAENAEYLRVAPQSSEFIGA
Put plainly: EGFR Autophosphorylation Inhibition Assay in Epidermoid Carcinoma Cell Line A431. Format: cell-based. The settings on record: EGF-induced phosphorylation of tyrosine 1173. The method, then:
(§1) Tyrosine 1173 is a major autophosphorylation site resulting from activation of EGFR by epidermal growth factor (EGF). To determine the capacity of a compound to inhibit this phosphorylation activity of EGFR upon itself, the following methodology was used: 4×10^4 A431 cells/well in a 96-well culture plate or 3.6×10^5 A549 cells/well in a 24-well culture plate were cultured overnight at 37° C. in 5% CO2 in low serum culture medium (DMEM supplemented with 0.5% fetal calf serum, 4.500 mg/L glucose and 100 units/ml penicillin-streptomycin). After 16 hours, the cells were pre-incubated in eight serial 3-fold dilutions of test compound (3.3 μM-0.0017 μM) in addition to vehicle control (final concentration on DMSO vehicle was 1%) for two hours. Cells were stimulated by the addition of 5 ng/ml of EGF for five minutes. Cells were then washed with cold phosphate buffered saline (PBS), and incubated for 30 minutes at 4° C. in lysis buffer. Subsequently, the samples were centrifuged at 6000× RCF for 15 minutes, and the level of phosphorylation of EGFR tyrosine 1173 was measured using a sandwich enzyme-linked immunosorbent assay following the manufacturer's recommended protocols (Biosource, Camarillo, Calif.). Total EGFR levels were also measured in the same manner to control for protein level differences. The reported values are those concentrations of compound required to inhibit EGF-induced phosphorylation of tyrosine 1173 by 50%.

Test [3] deals with T3, EGFR (tyrosine 1173 phosphorylation) in Lung Cancer Cell Line A459 (Homo sapiens, UniProt P00533).
T3 construct: endogenous in cells
T3 sequence (P00533 25-1210): as above
Put plainly: EGFR Autophosphorylation Inhibition Assay in Lung Cancer Cell Line A459. Format: cell-based. The settings on record: EGF-induced phosphorylation of tyrosine 1173. The method, then: as §1

Take `COc1ccc(-c2cc3c(OCc4cccc(C)c4)ncnc3[nH]2)cc1` [Compound C3]: in test [1], the Kd was over 10000 nM.

`COc1ccc(-c2cc3c(OCc4ccccc4)ncnc3[nH]2)cc1` [Compound C4]: in test [1], the Kd lay in the range of 100 to 1000 nM. As for `COc1ccc(-c2cc3c(Oc4cccc(Br)c4)ncnc3[nH]2)cc1` [Compound D3], the Kd in test [1] lay in the range of 100 to 1000 nM. The compound `COc1ccc(-c2cc3c(Oc4cccc(Cl)c4)ncnc3[nH]2)cc1` [Compound D5] came in with an IC50 in test [2] of 100 to 1000 nM. This compound also yielded a Kd in test [1] of under 100 nM. In the case of `COc1ccc(-c2cc3c(Oc4cccc(C)c4)ncnc3[nH]2)cc1` [Compound D8], the Kd in test [1] is under 100 nM. For `COc1cccc(-c2cc3c(Oc4cc(C)cc(C)c4)ncnc3[nH]2)c1` [Compound D18], the Kd in test [1] is 100 to 1000 nM. In the case of `COc1cccc(-c2cc3c(Oc4cccc(Br)c4)ncnc3[nH]2)c1` [Compound D19], the IC50 in test [3] lay in the range of 1000 to 10000 nM; in test [2] it was 100 to 1000 nM. This compound returned a Kd in test [1] of under 100 nM. `COc1cccc(-c2cc3c(Oc4cccc(F)c4)ncnc3[nH]2)c1` [Compound D20] displayed a Kd in test [1] of 100 to 1000 nM.

`COc1cccc(-c2cc3c(Oc4cccc(C(F)(F)F)c4)ncnc3[nH]2)c1` [Compound D21]: the Kd in test [1] was 100 to 1000 nM. On to `Oc1ccc(-c2cc3c(Oc4cc(Cl)cc(Cl)c4)ncnc3[nH]2)cc1` [Compound E1, 4-[4-(3,5-Dichloro-phenoxy)-7H-pyrrolo[2,3-d]pyrimidin-6-yl]-phenol], for which the IC50 in test [2] is 100 to 1000 nM. Further, the Kd in test [1] is 100 to 1000 nM. For `Cc1cc(C)cc(Oc2ncnc3[nH]c(-c4ccc(O)cc4)cc23)c1` [Compound E2], the Kd in test [1] was under 100 nM.

For the compound `COc1cccc(Oc2ncnc3[nH]c(-c4ccc(O)cc4)cc23)c1` [Compound E4], the Kd in test [1] was 100 to 1000 nM. `Clc1ccc(Sc2ncnc3[nH]ccc23)cc1Cl` [Compound F3] showed a Kd in test [1] of 100 to 1000 nM. The same measure, in the same setting: with `COc1ccc(-c2cc3c(Sc4ccc(Cl)c(Cl)c4)ncnc3[nH]2)cc1` [Compound J3] the figure was 100 to 1000 nM.

On to `COc1ccc(-c2cc3c(Sc4cccc(Cl)c4)ncnc3[nH]2)cc1` [Compound J7], for which the IC50 in test [3] and in test [2] was 1000 to 10000 nM throughout. The compound also displayed a Kd in test [1] of under 100 nM.

As to `COc1ccc(-c2cc3c(Sc4cccc(F)c4)ncnc3[nH]2)cc1` [Compound J8], the IC50 in test [3] and in test [2] was 1000 to 10000 nM in each case. This compound showed a Kd in test [1] of under 100 nM. In test [1], `COc1ccc(-c2cc3c(Sc4cccc(OC)c4)ncnc3[nH]2)cc1` [Compound J9] came in with a Kd of 100 to 1000 nM. The same measure, in the same setting: with `COc1ccc(-c2cc3c(Sc4cccc(C)c4)ncnc3[nH]2)cc1` [Compound J10] the figure was 100 to 1000 nM. `COc1ccc(-c2cc3c(Sc4cccc(C(F)(F)F)c4)ncnc3[nH]2)cc1` [Compound J11] registered a Kd in test [1] of 100 to 1000 nM. For the compound `COc1ccc(-c2cc3c(Sc4ccc(F)cc4)ncnc3[nH]2)cc1` [Compound J13], the IC50 in test [2] is 1000 to 10000 nM. The compound also yielded a Kd in test [1] of under 100 nM. As for `COc1ccc(-c2cc3c(Sc4ccc(C)cc4)ncnc3[nH]2)cc1` [Compound J14], the IC50 in test [3] and in test [2] was 1000 to 10000 nM in each case. Moreover, the Kd in test [1] is under 100 nM. On to `COc1ccc(-c2cc3c(Sc4ccccc4)ncnc3[nH]2)cc1` [Compound J16], for which the Kd in test [1] fell in the range of 100 to 1000 nM. `Cc1ccc(-c2cc3c(Sc4cccc(F)c4)ncnc3[nH]2)cc1` [Compound J17] gave a Kd in test [1] of 100 to 1000 nM. `Cc1cc(C)cc(Sc2ncnc3[nH]c(-c4ccc(O)cc4)cc23)c1` [Compound J18] registered an equilibrium dissociation constant (Kd) in test [1] of 100 to 1000 nM. Turning to `COc1cccc(-c2cc3c(Sc4ccccc4Cl)ncnc3[nH]2)c1` [Compound J19], the IC50 in test [3] and in test [2] was 1000 to 10000 nM each time. The Kd in test [1] was under 100 nM. As to `CCc1ccccc1Sc1ncnc2[nH]c(-c3cccc(OC)c3)cc12` [Compound J20], in test [2], the IC50 was 1000 to 10000 nM. The compound further came in with a dissociation constant (Kd) in test [1] of under 100 nM. Turning to `COc1cccc(-c2cc3c(Sc4cc(Cl)cc(Cl)c4)ncnc3[nH]2)c1` [Compound J21], the Kd in test [1] is over 10000 nM. Regarding `COc1cccc(-c2cc3c(Sc4cc(C)cc(C)c4)ncnc3[nH]2)c1` [Compound J22], the Kd in test [1] fell in the range of 100 to 1000 nM.

Consider `COc1cccc(-c2cc3c(Sc4cccc(Br)c4)ncnc3[nH]2)c1` [Compound J23], for which the IC50 in test [3] and in test [2] was 100 to 1000 nM in each case. For the same compound, the Kd in test [1] is under 100 nM. In the case of `COc1cccc(-c2cc3c(Sc4cccc(Cl)c4)ncnc3[nH]2)c1` [Compound J24], the IC50 in test [3] and in test [2] was 100 to 1000 nM each time. For the same compound, the Kd in test [1] was under 100 nM. As for `COc1cccc(-c2cc3c(Sc4cccc(F)c4)ncnc3[nH]2)c1` [Compound J25], the half-inhibitory concentration (IC50) in test [3] lay in the range of 1000 to 10000 nM; in test [2], 100 to 1000 nM. In addition, in test [1], the Kd is under 100 nM.

Take `COc1cccc(Sc2ncnc3[nH]c(-c4cccc(OC)c4)cc23)c1` [Compound J26]: the Kd in test [1] is 100 to 1000 nM. Consider `COc1cccc(-c2cc3c(Sc4cccc(C)c4)ncnc3[nH]2)c1` [Compound J27], for which the values for the IC50 in test [3] and in test [2] were 1000 to 10000 nM and 100 to 1000 nM, respectively. This compound yielded a Kd in test [1] of 100 to 1000 nM.

The compound `COc1cccc(-c2cc3c(Sc4cccc(C(F)(F)F)c4)ncnc3[nH]2)c1` [Compound J28] gave an IC50 in test [2] of 1000 to 10000 nM. In test [1], this compound had a Kd of under 100 nM. Turning to `COc1cccc(-c2cc3c(Sc4ccc(F)cc4)ncnc3[nH]2)c1` [Compound J30], the IC50 in test [3] and in test [2] was 1000 to 10000 nM each time. The compound also had a Kd in test [1] of under 100 nM. For the compound `COc1cccc(-c2cc3c(Sc4ccc(C)cc4)ncnc3[nH]2)c1` [Compound J31], the values for the IC50 in test [3] and in test [2] were over 10000 nM and 1000 to 10000 nM, respectively. Besides, the Kd in test [1] was under 100 nM. Take `COc1cccc(-c2cc3c(Sc4ccc(C(C)(C)C)cc4)ncnc3[nH]2)c1` [Compound J32]: the Kd in test [1] was in the range of 1000 to 10000 nM. As for `COc1ccc(-c2cc3c(Sc4ccc(F)c(Cl)c4)ncnc3[nH]2)cc1` [Compound J37], in test [2], the IC50 was in the range of 100 to 1000 nM. The same compound showed a Kd in test [1] of under 100 nM. On to `Brc1cccc(Sc2ncnc3c2[nH]c2ccccc23)c1` [Compound K8], for which, in test [2], the IC50 was in the range of 100 to 1000 nM. The compound also gave a dissociation constant (Kd) in test [1] of under 100 nM. For the compound `Cc1cccc(Sc2ncnc3c2[nH]c2ccccc23)c1` [Compound K12], the Kd in test [1] lay in the range of 100 to 1000 nM.

With `Clc1ccc(Sc2ncnc3c2[nH]c2ccccc23)cc1` [Compound K13], the IC50 in test [2] is 100 to 1000 nM. Further, in test [1], the Kd is under 100 nM. In test [2], `Cc1ccc(Sc2ncnc3c2[nH]c2ccccc23)cc1` [Compound K15] came in with an IC50 of 100 to 1000 nM. Besides, the Kd in test [1] was under 100 nM. In test [1], `c1ccc(Sc2ncnc3c2[nH]c2ccccc23)cc1` [Compound K17] returned a Kd of under 100 nM. Still for that read-out and setting: with `Oc1ccc(-c2cc3c(SCCc4ccccc4)ncnc3[nH]2)cc1` [Compound L1, 4-(4-Phenethylsulfanyl-7H-pyrrolo[2,3-d]pyrimidin-6-yl)-phenol] the figure was 1000 to 10000 nM.

`COc1cccc(Sc2ncnc3[nH]c(-c4ccc(O)cc4)cc23)c1` [Compound L4]: the dissociation constant Kd in test [1] is 100 to 1000 nM. For `COc1ccc(Sc2ncnc3[nH]c(-c4ccc(O)cc4)cc23)cc1` [Compound L11], the Kd in test [1] was 100 to 1000 nM. The same measure, in the same setting: with `Oc1cccc(Sc2ncnc3oc(-c4ccccc4)c(-c4ccccc4)c23)c1` [Compound N4] the figure was 100 to 1000 nM.

Turning to `COc1cccc(Sc2ncnc3oc(-c4ccccc4)c(-c4ccccc4)c23)c1` [Compound N12], in test [1], the Kd is 100 to 1000 nM.
